Assay results as given in ChEMBL document CHEMBL3885861, “Open TG-GATES”.

Organism: Rattus norvegicus
Assay: Open TG-GATES - Regimen: Daily Repeat
Assay type: toxicity, organism-based, Sprague-Dawley
Parameters: regimen Daily Repeat, gender Male, age 6 weeks
Details: in vivo, po, 0 mg/kg, route gavage, dose level Control; for APTT / Bas / Eos / Fbg / Hb / Ht / Lym / MCH / MCHC / MCV / Mono / Neu / PT / Plat / RBC / Ret / WBC: tissue Blood; for KIDNEY_L / KIDNEY_R / KIDNEY_TOTAL: tissue Kidney; for LIVER: tissue Liver; for A/G / ALP / ALT / AST / BUN / CRE / Ca / Cl / DBIL / GLC / IP / K / LDH / Na / PL / RALB / TBIL / TC / TG / TP / gamma-GTP: tissue Plasma

## OCCOCCN1CCN(C(c2ccccc2)c2ccc(Cl)cc2)CC1 (configuration not stated) [HYDROXYZINE]
72 h, time 3 day
  TERMINAL_BW: 230.9 g
  APTT: 15.5 s
  Bas: 0%
  Eos: 1%
  Fbg: 263.6 mg/dL
  Hb: 12.9 g/dL
  Ht: 39%
  Lym: 74.6%
  MCH: 21.1 pg
  MCHC: 33.1%
  MCV: 63.9 fL
  Mono: 3.2%
  Neu: 20.6%
  PT: 15.7 s
  Plat: 117.4 x10_4/uL
  RBC: 610.4 x10_4/ul
  Ret: 7.5%
  WBC: 77.5 x10_2/uL
  KIDNEY_L: 1 g
  KIDNEY_R: 1 g
  KIDNEY_TOTAL: 1.9 g
  LIVER: 11.1 g
  A/G: 0.9
  ALP: 1652.8 IU/L
  ALT: 46.2 IU/L
  AST: 68.8 IU/L
  BUN: 16.2 mg/dL
  CRE: 0.2 mg/dL
  Ca: 10.9 mg/dL
  Cl: 105.8 meq/L
  DBIL: 0.012 mg/dL
  GLC: 186.8 mg/dL
  IP: 8.1 mg/dL
  K: 4 meq/L
  LDH: 91.8 IU/L
  Na: 143.2 meq/L
  PL: 148.4 mg/dL
  RALB: 2.7 g/dL
  TBIL: 0.052 mg/dL
  TC: 73 mg/dL
  TG: 90 mg/dL
  TP: 5.7 g/dL
  gamma-GTP: 0.8 IU/L
[…], time 7 day
  TERMINAL_BW: 263.6 g
  APTT: 16.8 s
  Bas: 0%
  Eos: 1%
  Fbg: 282.2 mg/dL
  Hb: 13.6 g/dL
  Ht: 40.9%
  Lym: 79.2%
  MCH: 21.3 pg
  MCHC: 33.3%
  MCV: 63.9 fL
  Mono: 2.4%
  Neu: 16.4%
  PT: 15.4 s
  Plat: 113.3 x10_4/uL
  RBC: 639.4 x10_4/ul
  Ret: 6.1%
  WBC: 82.1 x10_2/uL
  KIDNEY_L: 1.1 g
  KIDNEY_R: 1.1 g
  KIDNEY_TOTAL: 2.3 g
  LIVER: 12.4 g
  A/G: 0.8
  ALP: 1624.6 IU/L
  ALT: 41.6 IU/L
  AST: 68.4 IU/L
  BUN: 16.6 mg/dL
  CRE: 0.2 mg/dL
  Ca: 11 mg/dL
  Cl: 105.2 meq/L
  DBIL: 0.016 mg/dL
  GLC: 193 mg/dL
  IP: 8 mg/dL
  K: 4 meq/L
  LDH: 68.4 IU/L
  Na: 143.2 meq/L
  PL: 166.6 mg/dL
  RALB: 2.7 g/dL
  TBIL: 0.054 mg/dL
  TC: 84 mg/dL
  TG: 103 mg/dL
  TP: 5.8 g/dL
  gamma-GTP: 0.8 IU/L
[…], time 14 day
  TERMINAL_BW: 336.5 g
  APTT: 16.9 s
  Bas: 0%
  Eos: 1%
  Fbg: 292 mg/dL
  Hb: 14.1 g/dL
  Ht: 41.5%
  Lym: 75.4%
  MCH: 20.7 pg
  MCHC: 34%
  MCV: 60.9 fL
  Mono: 2.8%
  Neu: 20.2%
  PT: 15.5 s
  Plat: 116.6 x10_4/uL
  RBC: 682.2 x10_4/ul
  Ret: 4.8%
  WBC: 105.1 x10_2/uL
  KIDNEY_L: 1.3 g
  KIDNEY_R: 1.3 g
  KIDNEY_TOTAL: 2.7 g
  LIVER: 15.4 g
  A/G: 0.8
  ALP: 1450 IU/L
  ALT: 40.6 IU/L
  AST: 62.6 IU/L
  BUN: 16.2 mg/dL
  CRE: 0.2 mg/dL
  Ca: 10.6 mg/dL
  Cl: 103.8 meq/L
  DBIL: 0.02 mg/dL
  GLC: 190.2 mg/dL
  IP: 7.4 mg/dL
  K: 4 meq/L
  LDH: 94.6 IU/L
  Na: 141.8 meq/L
  PL: 151.2 mg/dL
  RALB: 2.7 g/dL
  TBIL: 0.056 mg/dL
  TC: 73 mg/dL
  TG: 126.4 mg/dL
  TP: 6.1 g/dL
  gamma-GTP: 0.6 IU/L
[…], time 28 day
  TERMINAL_BW: 390.2 g
  APTT: 26.6 s
  Bas: 0.2%
  Eos: 1.2%
  Fbg: 295.8 mg/dL
  Hb: 15.1 g/dL
  Ht: 43.4%
  Lym: 79.6%
  MCH: 19.7 pg
  MCHC: 34.7%
  MCV: 56.7 fL
  Mono: 2%
  Neu: 16.4%
  PT: 15.9 s
  Plat: 105.6 x10_4/uL
  RBC: 766.4 x10_4/ul
  Ret: 2.4%
  WBC: 99.9 x10_2/uL
  KIDNEY_L: 1.4 g
  KIDNEY_R: 1.3 g
  KIDNEY_TOTAL: 2.8 g
  LIVER: 16.2 g
  A/G: 0.8
  ALP: 992.6 IU/L
  ALT: 36 IU/L
  AST: 61.2 IU/L
  BUN: 16.8 mg/dL
  CRE: 0.2 mg/dL
  Ca: 10.6 mg/dL
  Cl: 106 meq/L
  DBIL: 0.016 mg/dL
  GLC: 186.6 mg/dL
  IP: 6.6 mg/dL
  K: 4.1 meq/L
  LDH: 118.8 IU/L
  Na: 142.8 meq/L
  PL: 149.2 mg/dL
  RALB: 2.8 g/dL
  TBIL: 0.052 mg/dL
  TC: 68.2 mg/dL
  TG: 161.2 mg/dL
  TP: 6.3 g/dL
  gamma-GTP: 0.4 IU/L
